Source: BindingDB's records for patent US12378192 (Chia Tai Tianqing Pharmaceutical Group Co., 2025)
pIC50: −log10 of the molar value.

Biological target: Cytochrome P450 3A4 (Homo sapiens, UniProt P08684)
Assay: CYP450 Enzyme Induction Study
Method: A final incubation system of 500 μL contained 50 μL of liver microsomes (protein concentration: 0.2 mg/mL, Corning), 1 μL of mixed specific substrates of CYP450 (CYP1A2, CYP2B6, CYP2C9, CYP2C19, CYP2D6, CYP3A4), 398 μL of PBS (pH 7.4), 1 μL of specific positive inhibitor (positive control) or test compound (in acetonitrile) and 50 μL of NADPH+MgCl2. Samples were prepared in duplicate of 0.5 mL for each CYP450 subtype. For each tube, the 450 μL mixed solution of substrates and enzyme and the NADPH solution were separately pre-incubated at 37° C. for 5 min. The 50 μL mixed solution of NADPH+MgCl2 was added for reaction. At 30 min, 50 μL of the mixture was taken and 300 μL of glacial acetonitrile containing an internal standard was added to terminate the reaction. Additionally, 2 blanks of 500 μL each were prepared in parallel without adding NADPH as the negative control group.

Chain of Cytochrome P450 3A4 (P08684 whole entry): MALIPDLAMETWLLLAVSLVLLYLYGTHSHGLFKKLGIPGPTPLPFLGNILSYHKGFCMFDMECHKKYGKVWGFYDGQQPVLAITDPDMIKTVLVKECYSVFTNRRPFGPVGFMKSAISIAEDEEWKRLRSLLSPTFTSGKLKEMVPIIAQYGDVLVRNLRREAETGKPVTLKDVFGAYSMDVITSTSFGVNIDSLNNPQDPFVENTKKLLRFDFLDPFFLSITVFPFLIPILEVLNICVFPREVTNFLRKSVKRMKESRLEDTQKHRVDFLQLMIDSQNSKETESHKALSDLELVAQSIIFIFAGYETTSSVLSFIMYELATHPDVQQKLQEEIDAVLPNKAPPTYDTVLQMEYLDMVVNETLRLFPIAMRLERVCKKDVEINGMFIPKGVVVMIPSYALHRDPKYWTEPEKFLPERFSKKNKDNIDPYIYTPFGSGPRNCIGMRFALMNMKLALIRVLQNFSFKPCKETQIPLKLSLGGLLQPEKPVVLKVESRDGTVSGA

pIC50: < 3.70
Structure (SMILES): Cc1c(C(=O)Nc2ccc(F)c(C#N)c2)c(C)n(C)c1C(=O)C(=O)NC(C)C(F)(F)F (stereo unspecified) [US12378192, Compound of formula I]
